We go through six molecules from US7994162B2, “2-alkoxy-3,4,5-trihydroxy-alkylamide-benzazepines, the preparation and use thereof, and compositions containing the same” (Sanofi-Aventis, priority 2006, dated 2011).

As usually defined, the IC50 is the concentration that gives 50% inhibition. A high value points to weaker potency. The Papp is the rate of passage across a membrane or cell layer, normalised by area and donor concentration. Read a high Papp as fast passage.

In one data set the test system is HCT116 cells. Briefly: Inhibition of the cell proliferation of HCT116 cells (14C-thymidine incorporation). To be noted: Homo sapiens, HCT-116, 96 hours. The format is cell-based. The procedure: The antiproliferative activity of the products of the examples of Table 1 was determined by measuring the inhibition of the cell proliferation of HCT116 cells. The cells are seeded into a cell culture medium at a concentration of 10 000 cells per well, in 0.17 ml of medium, and 20 μl of test product, at various concentrations and 10 μl of thymidine [methyl-14C] (100 μCi/ml—specific activity 47.90 mCi/mmol; NEN Technologies reference NEC568 batch 3550-001) are added and the cells are then incubated at 37° C. and 5% CO2.
Medium used for the HCT116 cell culture: DMEM medium, 2 mM L-glutamine, 200 IU/ml penicillin, 200 μg/ml streptomycin and 10% (V/V) foetal calf serum (Life Technologies).
After 96 hours, the ^14C-thymidine incorporation is counted in a 1450 Microbeta Wallac Trilux liquid scintillation counter. The results R are expressed in cpm (counts per minute) and converted to percentage growth inhibition GI % by firstly subtracting the mean of the number of cpm of the wells without cells B and then dividing by the number of cpm of the wells of the nontreated cells C comprising 20 μl of product diluting medium containing 1% of ethanol (GI %=(R−B)×100/C %).
The IC50 values are calculated using equation 205 of the XLFit software (IDBS company, UK) by nonlinear regression analysis using the Marquardt algorithm (Donald W. MARQUARDT, J. Soc. industry. appl, vol 11, No. 2, June, 1963).
(In general: Uptake of a labelled nucleoside into DNA is a usual measure of proliferation.)

A short description of the next data set: in vitro. To be noted: human, Caco-2.

As for `CO[C@@H](C(=O)NC1CCc2ccccc2N(Cc2cc(F)cc(F)c2)C1=O)[C@H](O)[C@@H](O)[C@H](O)/C=C/C(C)(C)C` (stereo partly shown) [Example 1], in the data set on HCT116 cells, inhibition was half-maximal at 14 nM (IC50). `CO[C@@H](C(=O)NC1CCc2ccccc2N(C)C1=O)[C@H](O)[C@@H](O)[C@H](O)/C=C/C(C)(C)C` (stereo partly shown) [Example 2] yielded an IC50 with HCT116 cells of 15 nM. This IC50 and that of the molecule before are within 1.5-fold of each other. On the same count and under the same terms, the value for `CO[C@@H](C(=O)NC1CCc2cc(Br)ccc2NC1=O)[C@H](O)[C@@H](O)[C@H](O)/C=C/C(C)(C)C` (stereo partly drawn) [Example 3, N-(7-bromo-2-oxo-2,3,4,5-tetrahydro-1H-1-benzazepin-3-yl)-(E)-(2R,3R,4S,5R)-3,4,5-trihydroxy-2-methoxy-8,8-dimethylnon-6-enamide] was 58 nM; that for `CO[C@@H](C(=O)N[C@H]1CCc2cc(Br)ccc2NC1=O)[C@H](O)[C@@H](O)[C@H](O)/C=C/C(C)(C)C` [Example 3a] was 32 nM.

Molecule `CO[C@@H](C(=O)NC1CCc2cc(-c3ccccc3)ccc2NC1=O)[C@H](O)[C@@H](O)[C@H](O)/C=C/C(C)(C)C` (stereo partly drawn) [Example 4, N-(7-phenyl-2-oxo-2,3,4,5-tetrahydro-1H-1-benzazepin-3-yl)-(E)-(2R,3R,4S,5R)-3,4,5-trihydroxy-2-methoxy-8,8-dimethylnon-6-enamide] showed an IC50 in the data set with HCT116 cells of 75 nM.

`CO[C@@H](C(=O)N[C@H]1CCc2cc(-c3ccccc3)ccc2NC1=O)[C@H](O)[C@@H](O)[C@H](O)/C=C/C(C)(C)C` [Example 4a, (2R,3R,4S,5R,6E)-3,4,5-trihydroxy-2-methoxy-8,8-dimethyl-N-[(3S)-2-oxo-7-phenyl-2,3,4,5-tetrahydro-1H-1-benzazepin-3-yl]non-6-enamide] registered an IC50 in the data set on HCT116 cells of 14 nM. The same molecule had a Papp in “in vitro” of 4.8 ×10⁻⁶ cm/s.
